Measurements as given in US6517846B2, “Cosmetic composition” (Kyowa Hakko Kogyo Co., Ltd., priority 2000, dated 2003).
Structures can show the parent of a compound that is named as a salt. Where two headings read alike, the source gives them in different places.

Assays:
[1] = tested on: human subjects (washing hands); settings: grades scored; 1 Very irritative, 5 Very mild; mean n = 5
Protocol: The test compounds were evaluated using the following five grades. The intermediate grade between 1 and 3 was made 2, and that between 3 and 5 was made 4. Each grade 1, 2, 3, 4, 5 was scored as −5, −1.5, 0, 1.5, and 5, respectively, and the average of the scores was calculated for each evaluation item.

[2] = tested on: human skin (forearm crook, females with roughening skin); settings: 78 hours after the first treatment on day 1, 5 w/v % solution
[3] = tested on: human skin (forearm crook, females with roughening skin); experiment: Water content in skin after repeated cup treatment (Skicon-200); format: in vivo; settings: for Change of water content immediately before the treatment / Change of water content immediately after the second treatment: 5 w/v % solution; for Change of water content immediately before the treatment: twice a day; for water content in the skin, tendency in words: summary of Table 3
Protocol: A cup of 1-cm diameter was closely fixed to the skin of a forearm crook, and 0.5 ml of a solution containing 5 w/v % test compound was poured into the cup for treatment for 30 minutes. Then, the test site was washed with tepid water and wiped with a Kim wipe. The skin was acclimated under a constant environment at a temperature of 20° C. and a relative humidity of 50% for 20 minutes, and then, the water content in skin was measured using Skicon-200 (supplied by IBS Corporation). The treatment was repeated twice a day and continued for 4 days to determine the change of the water content in skin. The water content in each site to be treated before the treatment on day 0 was defined as 100%, and the water content in each site treated with the test compound immediately before and after the treatment (after the second treatment) on each day was determined as a relative value (%).

[4] = tested on: human skin (forearm crook, females with roughening skin)
Protocol: A cup of 1-cm diameter was closely fixed to the skin of a forearm crook, and 0.5 ml of a solution containing 5 w/v % test compound was poured into the cup for treatment for 30 minutes. Then, the test site was washed with tepid water and wiped with a Kim wipe.
On the next day of that when the above treatment was completed, transpiration rates of water at the treated sites were measured using a TEWA meter (TM210, supplied by Nippon Eurotech Co., Ltd.)

[5] = tested on: human normal keratinocytes; experiment: Cytotoxicity in human normal keratinocytes, neutral red (NR) method; format: cell-based; settings: 48 hours incubation, 1 to 10,000 ppm, pH 7, mean n = 4
Protocol: (2) Neutral red (NR) method:
NR penetrates plasma membranes and is concentrated in lysosomes in normal cells, but is not capable of being incorporated into cells with surface damages. Thus, the NR method is a method where the number of living cells is evaluated by determining the amount of NR incorporated in living cells (the absorbance at a wavelength of 540 nm was measured), and was carried out according to the NR bioassay data book of Sanko Pure Chemicals.
(§1) (4) Using the above three methods for the evaluation of suppression of cytotoxicity, suppressive effects of the test compounds on cytotoxicity were determined as follows.

[6] = tested on: human normal keratinocytes; experiment: Cytotoxicity in human normal keratinocytes, MTT method; format: cell-based; settings: 48 hours incubation, 1 to 10,000 ppm, pH 7, mean n = 4
Protocol: (1) A method using 3-(4,5-dimethylthiazol-2-yl)-2,5-diphenyl tetrazolium bromide (MTT method):
This is a method where the number of living cells is evaluated by determining enzyme activity related to respiratory chain present in inner membranes of mitochondria in living cells. The amount of MTT formazan produced after incorporation of MTT into cells was determined by colorimetric quantification at a wavelength of 570 nm (reference: 650 nm). [See Sugawara, et al., “Saibou Baiyou (Cell Culture) III”, 4477-4482 (1984); J. Soc. Cosmet. Chem. Jpn., 27, 498-505 (1993)].
as §1

IL-1α = settings: mean n = 2
Protocol: The determination of IL-1α was carried out using an IL-1α human ELISA system supplied by Amarsham.
The cells were seeded in a 25 cm^2-flask coated with collagen and cultured at 37° C. under 5% of CO2 for 6 days.
One day after the seeding, the test compounds prepared at given concentrations (1 to 10,000 ppm, pH 7) were each added to the culture and continuously incubated for 48 hours.
Also, the release of IL-1α from the cultured cells was determined by calculating IL-1α concentration in the culture media with a lapse of time.

[7] = Day 1 (0 hr.), baseline defined as 100%, 30 min
[8] = Day 1 (6 hr.), relative to pre-treatment = 100%
[9] = Day 2 (24 hr.), relative to pre-treatment = 100%
[10] = Day 2 (30 hr.), relative to pre-treatment = 100%
[11] = Day 3 (48 hr.), relative to pre-treatment = 100%
[12] = Day 3 (54 hr.), relative to pre-treatment = 100%
[13] = Day 4 (72 hr.), relative to pre-treatment = 100%
[14] = Day 4 (78 hr.), relative to pre-treatment = 100%

| Compound | Irritation (after use), average score [1] | Desquamation [2] | Erythema [2] | Change of water content immediately before the treatment [3, 7] | Change of water content immediately after the second treatment [3, 8] | Change of water content immediately before the treatment [3, 9] | Change of water content immediately after the second treatment [3, 10] | Change of water content immediately before the treatment [3, 11] | Change of water content immediately after the second treatment [3, 12] | Change of water content immediately before the treatment [3, 13] | Change of water content immediately after the second treatment [3, 14] | water content in the skin, tendency in words [3] | NR, IC50 [5] | MTT, IC50 [6] | further results |
| --- | --- | --- | --- | --- | --- | --- | --- | --- | --- | --- | --- | --- | --- | --- | --- |
| CCCCCCCCCCCC(=O)NCCC(=O)O [LBA, sodium salt of lauroyl β-alanine] | 1.5 | A little | None | 100% | 113% | 88% | 82% | 104% | 104% | 93% | 101% | no effect on the water content was observed | 33 ppm | 35 ppm | Desquamation ([2]; listed as lauroyl β-alanine): lowest; water transpiration rate, in words ([4]; summary of Table 5): lowest |
| Triethanolamine N-Cocoyl-L-glutaminate [GMT] | – | – | – | 100% | 124% | 135% | 126% | 168% | 128% | 140% | 120% | tendency to increase with a lapse of time | 53 ppm | 70 ppm | – |
| triethanolamine N-cocoyl glutamate [GAT] | 1.2 | Somewhat aggravated | None | 100% | 88% | 97% | 76% | 111% | 78% | 80% | 73% | tendency to decrease immediately after the treatment | 48 ppm | 60 ppm | Desquamation ([2]; listed as N-cocoyl-L-glutamate): much desquamation; IL-1α (IL-1α; 10 ppm test compound): 172.16 pg/well; IL-1α (IL-1α; 30 ppm test compound): 216.18 pg/well; IL-1α (IL-1α; 60 ppm test compound): 333.05 pg/well; IL-1α (IL-1α; 100 ppm test compound): 313.78 pg/well; IL-1α (IL-1α; 300 ppm test compound): 269.13 pg/well; Relative water transpiration rates ([4]; next day after the 4-day treatment, Control = 100, mean n = 4): 138% |
